Test results from US11298369B2, “Composition and uses thereof” (Progen PG500 Series Pty Ltd, priority 2016, dated 2022).

How the values were obtained:
advanced solid tumours = conditions: cited from earlier work
[1] = test system: tumour-associated macrophages (TAMs) and myeloid-derived suppressor cells (MDSCs); conditions: preclinical pancreatic cancer models, chemically-induced skin cancer model; cited from earlier work
4T1.2 tumours = test: 4T1.2 tumour model: tumour growth inhibition; format: in vivo, Balb/c mice; conditions: day 18, PG545 15 mg/kg weekly, antibody 200 μg intraperitoneally days 1, 4, 8, 11, 15
Method: Female Balb/c mice (Age 8 weeks; Walter and Eliza Hall Institute of Medical Research (WEHI), Victoria Australia) were inoculated in the intramammary fatpad with 1×10^5 4T1.2 cells in phosphate buffered saline. 4T1.2 is a mouse mammary tumour model.
The experiment was ended on day 18 or earlier if an ethical endpoint was met. Blood was collected via cardiac bleed and serum was prepared and frozen at −80° C.
The percentage tumour growth inhibition was determined according to the following formula: 100×(1−ΔT/ΔC) where ΔC and ΔT were calculated by subtracting the mean tumour volume in each group on day 1 of treatment from the mean tumour volume on the day of analysis. Statistical analysis of the in vivo data was performed using Graph Pad Prism Version 6.0 (Graph Pad La Jolla, Calif.). An ANOVA analysis was performed followed by Dunnett's post hoc test to compare the tumour growth in the treated groups to the vehicle control.

[2] = mouse, in vivo, 20 mg/kg
Method: Mice were weighed and tumours measured 2-3 times weekly using electronic callipers. Tumour volume (mm^3) was calculated as length (mm)/2×width (mm)^2. One week following implantation mice with similar sized tumours (mean tumour volume 56 mm^3) were randomised into 4 groups of 6 animals (Day 1). Treatment groups were saline+control antibody, PG545+control antibody, saline+anti-PD-1 and PG545+anti-PD-1.
[…] Mice received a small dish containing a food supplement (Ensure mixed with food dust) daily.
In FIG. 1, the data represent the mean percent weight change from day 1 for each group; bars are standard error of the mean (SEM). […] It was decided to harvest the experiment on day 18.

dendritic cell (DC) = conditions: cited from earlier work

## CC(C)CCC[C@@H](C)[C@H]1CC[C@H]2[C@@H]3CC[C@H]4C[C@@H](O[C@@H]5O[C@H](COS(=O)(=O)[O-])[C@@H](O[C@H]6O[C@H](COS(=O)(=O)[O-])[C@@H](O[C@H]7O[C@H](COS(=O)(=O)[O-])[C@@H](O[C@H]8O[C@H](COS(=O)(=O)[O-])[C@@H](OS(=O)(=O)[O-])[C@H](OS(=O)(=O)[O-])[C@H]8OS(=O)(=O)[O-])[C@H](OS(=O)(=O)[O-])[C@H]7OS(=O)(=O)[O-])[C@H](OS(=O)(=O)[O-])[C@H]6OS(=O)(=O)[O-])[C@H](OS(=O)(=O)[O-])[C@H]5OS(=O)(=O)[O-])CC[C@]4(C)[C@H]3CC[C@]12C.[Na+].[Na+].[Na+].[Na+].[Na+].[Na+].[Na+].[Na+].[Na+].[Na+].[Na+].[Na+].[Na+] [PG545, 3β,5α-Cholestanyl 2,3,4,6-tetra-O-sodium sulfonato-α-D-glucopyranosyl-(1→4)-2,3,6-tri-O-sodium sulfonato-α-D-glucopyranosyl-(1→4)-2,3,6-tri-O-sodium sulfonato-α-D-glucopyranosyl-(1→4)-2,3,6-tri-O-sodium sulfonato-β-D-glucopyranoside]
Advanced solid tumours; PG545 monotherapy
  Reductions in tumour size: did not lead to reductions in tumour size
Advanced solid tumours; once weekly IV infusion, patients with advanced solid tumours
  Maximum tolerated dose: 100 mg
[1]
  TAMs and MDSCs within the tumour microenvironment: depletion
4T1.2 tumours
  Tumour growth inhibition (% TGI): 68%
[2]
  Tolerability (maximum tolerated dose issues): body weight issues
Dendritic cell (DC); PG545 alone, naïve mice and mice bearing A20 lymphoma tumours
  Activation of T cells: does not activate T cells
Dendritic cell (DC); via effect on DCs
  Activation of NK cells: potent activation
